Measured values: patent US11020358B2, “Method for the anti-senescence of and/or rejuvenating stem cells” (GWO XI STEM CELL APPLIED TECHNOLOGY CO., LTD., priority 2014, dated 2021)

Assays:
Assay type in all cases: cell-based, human
ADSCs [1] = assay: Microarray analysis of gene expression in ADSCs; details: H2O2+TC6 group ADSCs, H2O2 group set as one fold; p < 0.05
Description: Four portions of equal volume of the above culture medium containing the sub-cultured ADSCs were separately handled by adding thereinto H2O2 (purchased from Sigma-Aldrich) at a final concentration of 100 μM and reacting for 2 hours to induce senescence of the ADSCs, replacing the culture medium with a fresh culture medium, adding thereinto TC (trans-cinnamaldehyde, purchased from Sigma-Aldrich) at a final concentration of 0, 2, 4 or 6 μM and reacting for 6 hours, so as to obtain “H2O2 group (i.e., treated with H2O2 for 2 hours, but not treated with TC),” “H2O2+TC2 group (i.e., treated with H2O2 for 2 hours and then treated with 2 μM of TC for 6 hours),” “H2O2+TC4 group (i.e., treated with H2O2 for 2 hours and then treated with 4 μM of TC for 6 hours),” and “H2O2+TC6 group (i.e., treated with H2O2 for 2 hours and then treated with 6 μM of TC for 6 hours)” ADSCs. Each of the total cellular RNA of ADSCs of “H2O2 group” and “H2O2+TC6 group” from Experiment (3-1) was handled as follows. […] The products thus obtained are single strand cDNA of these genes. The cDNA was hybridized with a gene chip (Affymetrix GeneChip Human Genome U133 plus 2.0 Array, Affymetrix). Then, the gene chip was scanned and analyzed with a microarray scanner system (Gene Chip® Scanner 3000).

ADSCs [2] = assay: Flow cytometry of surface antigens of ADSCs; details: compared to untreated group
Description: Four portions of equal volume of the above culture medium containing the sub-cultured ADSCs were separately handled by adding thereinto H2O2 (purchased from Sigma-Aldrich) at a final concentration of 100 μM and reacting for 2 hours to induce senescence of the ADSCs, replacing the culture medium with a fresh culture medium, adding thereinto TC (trans-cinnamaldehyde, purchased from Sigma-Aldrich) at a final concentration of 0, 2, 4 or 6 μM and reacting for 6 hours, so as to obtain “H2O2 group (i.e., treated with H2O2 for 2 hours, but not treated with TC),” “H2O2+TC2 group (i.e., treated with H2O2 for 2 hours and then treated with 2 μM of TC for 6 hours),” “H2O2+TC4 group (i.e., treated with H2O2 for 2 hours and then treated with 4 μM of TC for 6 hours),” and “H2O2+TC6 group (i.e., treated with H2O2 for 2 hours and then treated with 6 μM of TC for 6 hours)” ADSCs.
Four portions of equal volume of the above culture medium containing the sub-cultured ADSCs were handled by adding thereinto TC at final concentrations of 0, 2, 4 and 6 μM respectively, and reacting for 6 hours to obtain “untreated group (i.e., without any treatment),” “TC2 group (i.e., treated only with 2 μM of TC),” “TC4 group (i.e., treated only with 4 μM of TC)” and “TC6 group (i.e., treated only with 6 μM of TC)” ADSCs. […]

ADSCs [3] = assay: Adipogenic differentiation assay (Oil Red O); details: H2O2 group ADSCs (100 μM 2 h), compared to untreated group
Description: Four portions of equal volume of the above culture medium containing the sub-cultured ADSCs were separately handled by adding thereinto H2O2 (purchased from Sigma-Aldrich) at a final concentration of 100 μM and reacting for 2 hours to induce senescence of the ADSCs, replacing the culture medium with a fresh culture medium, adding thereinto TC (trans-cinnamaldehyde, purchased from Sigma-Aldrich) at a final concentration of 0, 2, 4 or 6 μM and reacting for 6 hours, so as to obtain “H2O2 group (i.e., treated with H2O2 for 2 hours, but not treated with TC),” “H2O2+TC2 group (i.e., treated with H2O2 for 2 hours and then treated with 2 μM of TC for 6 hours),” “H2O2+TC4 group (i.e., treated with H2O2 for 2 hours and then treated with 4 μM of TC for 6 hours),” and “H2O2+TC6 group (i.e., treated with H2O2 for 2 hours and then treated with 6 μM of TC for 6 hours)” ADSCs. […]
After being photographed, the oil droplets were extracted from the cells in each sample with isopropanol containing 4% Nonidet P-40. The absorbance of the oil droplets at a wavelength of 510 nm (i.e., OD510) of each sample were measured, wherein the absorbance corresponds to the number of cells in orange-red color (i.e., cells present after adipogenic differentiation).

SMILES	CCND1 gene expression level (ADSCs [1]) [Folds]	E2F6 gene expression level (ADSCs [1]) [Folds]	EIF5 gene expression level (ADSCs [1]) [Folds]	GADD45B gene expression level (ADSCs [1]) [Folds]	NYFA gene expression level (ADSCs [1]) [Folds]	PCNA gene expression level (ADSCs [1]) [Folds]	PIM1 gene expression level (ADSCs [1]) [Folds]	POLR3H gene expression level (ADSCs [1]) [Folds]	SIRT1 gene expression level (ADSCs [1]) [Folds]	hTERT gene expression level (ADSCs [1]) [Folds]	p16 gene expression level (ADSCs [1]) [Folds]	p53 gene expression level (ADSCs [1]) [Folds]	expression phenotypes of the surface antigens (ADSCs [2]; 100 μM H2O2 2 h then 6 μM TC 6 h (H2O2+TC6 group))	cell number after adipogenic differentiation (OD510) (ADSCs [3])	expression phenotypes of the surface antigens (ADSCs [2]; 100 μM H2O2 2 h (H2O2 group))
O=C/C=C/c1ccccc1 [TC, trans-cinnamaldehyde]	5.8	2.2	3.4	−4.6	7.2	2	−4.4	2.2	2.4	2	−1.8	−1	not significantly changed	–	–
OO [H2O2, reference compound]	–	–	–	–	–	–	–	–	–	–	–	–	–	significantly reduced	not significantly changed
